Where two headings read alike, the source gives them in different places.
What was measured:
[1] = system: Aβ40 in conditioned medium of cells stably expressing Amyloid Precursor Protein (APP); assay: In vitro BACE cell-based assay (Aβ40 sandwich ELISA); conditions: Homo sapiens
How it was run: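 Aβ40 in supernatants was measured by time-resolved fluorescence sandwich ELISA using pAb40 capture and biotinylated 6E10 detection, with antibody incubations at 4 °C. Stable APP cells were exposed to compounds for 24 h in a 10-point series (top dose 100 or 10 µM, 0.1% DMSO). IC50 was fitted from the concentration-response.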

[2] = target: Cathepsin D (Cat D) (Homo sapiens (Human), UniProt P07339); assay: In vitro enzymatic Cathepsin D (Cat D) FRET assay; assay type: biochemical; conditions: read-out: CatD IC50
Sequence of Cathepsin D (Cat D) (P07339 65-412, species assumed): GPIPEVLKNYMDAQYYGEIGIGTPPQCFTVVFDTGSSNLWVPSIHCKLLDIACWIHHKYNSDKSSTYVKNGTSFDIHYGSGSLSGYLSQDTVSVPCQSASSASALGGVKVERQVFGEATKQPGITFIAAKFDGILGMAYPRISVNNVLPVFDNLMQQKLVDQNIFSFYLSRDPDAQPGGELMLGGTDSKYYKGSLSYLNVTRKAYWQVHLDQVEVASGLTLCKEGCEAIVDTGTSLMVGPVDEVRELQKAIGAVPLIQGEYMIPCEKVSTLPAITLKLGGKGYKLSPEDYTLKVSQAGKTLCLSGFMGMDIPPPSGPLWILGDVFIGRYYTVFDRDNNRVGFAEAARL
How it was run: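 CHO-expressed recombinant Cat D cleaves a fluorophore/quencher FRET peptide (20 nM) in 0.05 M citrate pH 3.5, 5 mM CHAPS, 10% DMSO final, over 1 h. Tris addition neutralizes pH to stop the reaction; fluorescence read at excitation 500 nm, emission 580 nm.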

[3] = target: Beta Secretase enzyme (BACE) (Homo sapiens (Human), UniProt P56817); assay: In vitro enzymatic BACE FRET assay; assay type: biochemical; conditions: read-out: BACE 1 FRET assay IC50
Sequence of Beta Secretase enzyme (BACE) (P56817 46-501): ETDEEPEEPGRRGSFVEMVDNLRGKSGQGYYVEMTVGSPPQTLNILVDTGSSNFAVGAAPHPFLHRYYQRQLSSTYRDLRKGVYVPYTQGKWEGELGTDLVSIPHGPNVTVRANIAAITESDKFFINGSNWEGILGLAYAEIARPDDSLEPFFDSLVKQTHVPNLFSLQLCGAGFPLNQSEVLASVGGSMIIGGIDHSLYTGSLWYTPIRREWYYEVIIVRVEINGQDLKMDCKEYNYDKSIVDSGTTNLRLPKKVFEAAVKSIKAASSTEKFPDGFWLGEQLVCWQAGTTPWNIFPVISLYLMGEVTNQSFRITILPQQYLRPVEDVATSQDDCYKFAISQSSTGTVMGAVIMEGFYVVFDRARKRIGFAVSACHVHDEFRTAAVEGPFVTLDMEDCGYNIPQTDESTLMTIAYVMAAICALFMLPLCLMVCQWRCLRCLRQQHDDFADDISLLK
Experimental: In Vitro Enzymatic BACE FRET (Fluorescence Resonance Energy Transfer) Assay (Enzyme Assay Data in the Example Table I)
The assay buffer used in this screen is 0.05 M acetate, pH 4.2, 10% DMSO final, 100 uM genapol (which is a nonionic detergent, below its Critical Micelle Concentration). […] This assay is effectively started by the addition of FRET substrate (50 nM) and the combination is incubated for one hour. The FRET assay is terminated with by addition of Tris buffer, which raises the pH to neutrality, and the fluorescence is determined. The FRET substrate is a peptide with commercially available fluorophore and quencher, on opposite sides of the BACE cleavage site.

[4] = HEK293, average IC50, HEK cells, read-out: HEK cell assay IC50
[5] = HEK293, average IC50, HEK cell assay, read-out: HEK cell assay IC50
[6] = average IC50, cathepsin D enzyme assay
[7] = average IC50, BACE enzyme assay
[8] = HEK293, read-out: HEK cell assay IC50

| Compound | IC50 [1, 4] [µM] | IC50 ([2]; average IC50) [µM] | IC50 ([3]; average IC50) [µM] | IC50 [1, 5] [µM] | IC50 [2, 6] [µM] | IC50 [3, 7] [µM] | IC50 [1, 8] [µM] |
| --- | --- | --- | --- | --- | --- | --- | --- |
| C[C@@]1(c2cc(Nc3ncnc4cc(C#N)cnc34)cnc2F)C[C@@H](C(F)(F)F)OC(N)=N1 [Example 75, 4-((5-((4S,6S)-2-amino-4-methyl-6-(trifluoromethyl)-5,6-dihydro-4H-1,3-oxazin-4-yl)-6-fluoropyridin-3-yl)amino)pyrido[3,2-d]pyrimidine-7-carbonitrile] | 0.0912 | > 400 | 0.368 |  |  |  |  |
| C[C@@]1(c2cc(Nc3nccc4cc(Cl)cnc34)cnc2F)C[C@@H](C(F)(F)F)OC(N)=N1 [Example 76, (4S,6S)-4-(5-((3-chloro-1,7-naphthyridin-8-yl)amino)-2-fluoropyridin-3-yl)-4-methyl-6-(trifluoromethyl)-5,6-dihydro-4H-1,3-oxazin-2-amine] | 0.042 | > 400 | 0.0329 |  |  |  |  |
| C[C@@]1(c2cc(Nc3nccc4cc(C#N)cnc34)cnc2F)C[C@@H](C(F)(F)F)OC(N)=N1 [Example 77, 8-((5-((4S,6S)-2-amino-4-methyl-6-(trifluoromethyl)-5,6-dihydro-4H-1,3-oxazin-4-yl)-6-fluoropyridin-3-yl)amino)-1,7-naphthyridine-3-carbonitrile] | 0.0248 | > 400 | 0.0956 |  |  |  |  |
| C[C@@]1(c2nc(NC(=O)c3ccc(Cl)cn3)ccc2F)C[C@@H](C(F)(F)F)OC(N)=N1 [Example 83, N-(6-((4S,6S)-2-amino-4-methyl-6-(trifluoromethyl)-5,6-dihydro-4H-1,3-oxazin-4-yl)-5-fluoropyridin-2-yl)-5-chloropicolinamide] | 0.0389 | > 400 | 0.103 |  |  |  |  |
| Cc1cc(OC(F)F)cnc1C(=O)Nc1ccc(F)c([C@]2(C)C[C@@H](C(F)(F)F)OC(N)=N2)n1 [Example 85, N-(6-((4S,6S)-2-amino-4-methyl-6-(trifluoromethyl)-5,6-dihydro-4H-1,3-oxazin-4-yl)-5-fluoropyridin-2-yl)-5-(difluoromethoxy)-3-methylpicolinamide] | 0.0295 | 492 | 0.103 |  |  |  |  |
| C#CCOc1cnc(C(=O)Nc2ccc(F)c([C@]3(C)C[C@@H](C(F)(F)F)OC(N)=N3)n2)cn1 [Example 87, N-(6-((4S,6S)-2-amino-4-methyl-6-(trifluoromethyl)-5,6-dihydro-4H-1,3-oxazin-4-yl)-5-fluoropyridin-2-yl)-5-(prop-2-yn-1-yloxy)pyrazine-2-carboxamide] | 0.0084 | 609 | 0.0254 |  |  |  |  |
| C[C@@]1(c2nc(NC(=O)c3nn(C(F)F)cc3Cl)ccc2F)C[C@@H](C(F)(F)F)OC(N)=N1 [Example 88, N-(6-((4S,6S)-2-amino-4-methyl-6-(trifluoromethyl)-5,6-dihydro-4H-1,3-oxazin-4-yl)-5-fluoropyridin-2-yl)-4-chloro-1-(difluoromethyl)-1H-pyrazole-3-carboxamide] |  |  |  | 0.01 | 712 | 0.032 |  |
| Cc1cc(Cl)cnc1C(=S)Nc1ccc(F)c([C@]2(CF)C[C@@H](C(F)(F)F)OC(N)=N2)c1 [Example 90, N-(3-((4S,6S)-2-amino-4-(fluoromethyl)-6-(trifluoromethyl)-5,6-dihydro-4H-1,3-oxazin-4-yl)-4-fluorophenyl)-5-chloro-3-methylpyridine-2-carbothioamide] | 0.909 | > 400 | 1.76 |  |  |  |  |
| NC1=N[C@](CF)(c2cc(Oc3cnccn3)ccc2F)C[C@@H](C(F)(F)F)O1 [Example 92, (4S,6S)-4-(2-fluoro-5-(pyrazin-2-yloxy)phenyl)-4-(fluoromethyl)-6-(trifluoromethyl)-5,6-dihydro-4H-1,3-oxazin-2-amine] | 1.65 | > 400 | 1.64 |  |  |  |  |
| NC1=N[C@](CF)(c2cc(Oc3ncc(Cl)cc3F)ccc2F)C[C@@H](C(F)(F)F)O1 [Example 95, (4S,6S)-4-(5-((5-chloro-3-fluoropyridin-2-yl)oxy)-2-fluorophenyl)-4-(fluoromethyl)-6-(trifluoromethyl)-5,6-dihydro-4H-1,3-oxazin-2-amine] | 2.59 | > 400 | 2.89 |  |  |  |  |
| NC1=N[C@](CF)(c2cc(Oc3cc(Br)cc(Cl)n3)ccc2F)C[C@@H](C(F)(F)F)O1 [Example 98] | 2.9 | > 400 | 1.95 |  |  |  |  |
| NC1=N[C@](CF)(c2cc(Oc3cccc(Cl)n3)ccc2F)C[C@@H](C(F)(F)F)O1 [Example 100, (4S,6S)-4-(5-((6-chloropyridin-2-yl)oxy)-2-fluorophenyl)-4-(fluoromethyl)-6-(trifluoromethyl)-5,6-dihydro-4H-1,3-oxazin-2-amine] |  |  |  | 3.26 | 1930 | 1.57 |  |
| NC1=N[C@](CF)(c2cc(-c3nc4ccc(Cl)cc4o3)ccc2F)C[C@@H](C(F)(F)F)O1 [Example 105, (4S,6S)-4-(5-(6-chlorobenzo[d]oxazol-2-yl)-2-fluorophenyl)-4-(fluoromethyl)-6-(trifluoromethyl)-5,6-dihydro-4H-1,3-oxazin-2-amine] |  |  |  |  | > 44.4 | 0.542 | 2.81 |
| N#Cc1cccnc1Oc1ccc(F)c([C@]2(CF)C[C@@H](C(F)(F)F)OC(N)=N2)c1 [Example 107, 2-(3-((4S,6S)-2-amino-4-(fluoromethyl)-6-(trifluoromethyl)-5,6-dihydro-4H-1,3-oxazin-4-yl)-4-fluorophenoxy)nicotinonitrile] |  | 1400 | 5.87 |  |  |  | 3.61 |
| NC1=N[C@](CF)(c2cc(Oc3ncccn3)ccc2F)C[C@@H](C(F)(F)F)O1 [Example 108, (4S,6S)-4-(2-fluoro-5-(pyrimidin-2-yloxy)phenyl)-4-(fluoromethyl)-6-(trifluoromethyl)-5,6-dihydro-4H-1,3-oxazin-2-amine] | > 15.6 | > 400 | 9.97 |  |  |  |  |
| NC1=N[C@](CF)(c2cc(Oc3nccc(C(F)(F)F)c3F)ccc2F)C[C@@H](C(F)(F)F)O1 [Example 109, (4S,6S)-4-(2-fluoro-5-((3-fluoro-4-(trifluoromethyl)pyridin-2-yl)oxy)phenyl)-4-(fluoromethyl)-6-(trifluoromethyl)-5,6-dihydro-4H-1,3-oxazin-2-amine] |  | > 400 | 9.52 |  |  |  | 8.18 |
| NC1=N[C@](CF)(c2cc(Oc3cccc(C(F)(F)F)n3)ccc2F)C[C@@H](C(F)(F)F)O1 [Example 110, (4S,6S)-4-(2-fluoro-5-((6-(trifluoromethyl)pyridin-2-yl)oxy)phenyl)-4-(fluoromethyl)-6-(trifluoromethyl)-5,6-dihydro-4H-1,3-oxazin-2-amine] | 4.56 | 1820 | 3.41 |  |  |  |  |
| C[Si](C)(C)C#Cc1ccc(-c2ccc(F)c([C@]3(CF)C[C@@H](C(F)(F)F)OC(N)=N3)c2)cn1 [Example 111, (4S,6S)-4-(2-fluoro-5-(6-((trimethylsilyl)ethynyl)pyridin-3-yl)phenyl)-4-(fluoromethyl)-6-(trifluoromethyl)-5,6-dihydro-4H-1,3-oxazin-2-amine] |  |  |  |  | > 400 | 37.2 | > 15.6 |
| C#Cc1ccc(-c2ccc(F)c([C@]3(CF)C[C@@H](C(F)(F)F)OC(N)=N3)c2)cn1 [Example 112, (4S,6S)-4-(5-(6-ethynylpyridin-3-yl)-2-fluorophenyl)-4-(fluoromethyl)-6-(trifluoromethyl)-5,6-dihydro-4H-1,3-oxazin-2-amine] |  |  |  | > 15.6 | > 400 | > 40 |  |
| CC#Cc1ccc(-c2ccc(F)c([C@]3(CF)C[C@@H](C(F)(F)F)OC(N)=N3)c2)cn1 [Example 113, (4S,6S)-4-(2-fluoro-5-(6-(prop-1-yn-1-yl)pyridin-3-yl)phenyl)-4-(fluoromethyl)-6-(trifluoromethyl)-5,6-dihydro-4H-1,3-oxazin-2-amine] |  |  |  | > 15.6 | 170 | 27.4 |  |
| NC1=N[C@](CF)(c2cc(-c3ncc4cc(F)ccc4n3)ccc2F)C[C@@H](C(F)(F)F)O1 [Example 114, (4S,6S)-4-(2-fluoro-5-(6-fluoroquinazolin-2-yl)phenyl)-4-(fluoromethyl)-6-(trifluoromethyl)-5,6-dihydro-4H-1,3-oxazin-2-amine] |  |  |  | > 15.6 | 758 | > 40 |  |
| NC1=N[C@](CF)(c2cc(Nc3cc(-c4ccccc4)ccn3)ccc2F)C[C@@H](C(F)(F)F)O1 [Example 115, (4S,6S)-4-(2-fluoro-5-((4-phenylpyridin-2-yl)amino)phenyl)-4-(fluoromethyl)-6-(trifluoromethyl)-5,6-dihydro-4H-1,3-oxazin-2-amine] |  |  |  | 3.16 | 316 | 7.88 |  |
| NC1=N[C@](CF)(c2cc(-c3ccc4cc(F)ccc4n3)ccc2F)C[C@@H](C(F)(F)F)O1 [Example 116, (4S,6S)-4-(2-fluoro-5-(6-fluoroquinolin-2-yl)phenyl)-4-(fluoromethyl)-6-(trifluoromethyl)-5,6-dihydro-4H-1,3-oxazin-2-amine] |  |  |  | > 15.6 | > 133 | > 40 |  |

Source: US9296734B2 (AMGEN INC., priority 2013, dated 2016)
